The source of these data is patent US8993574B2, “Pyrrole antifungal agents” (F2G Ltd, priority 2008, dated 2015).

What all share (type): cell-based
Test [1] relates to Aspergillus flavus. Briefly: MIC, YAG medium. The following applies: 24 h at 35° C, MIC banded into grades; for MIC: Aspergillus flavus, 24 h, read-out: MIC grade, A. flavus. The procedure, abridged: (§1)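 MICs (mg/L) derive from the lowest compound concentration suppressing spore outgrowth by >70% against a drug-free well, by OD 485 nm. Conditions: YAG medium, 1−2×10^4 cfu/mL, 24 h, 35° C, two-fold dilutions from 50 mg/L.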

The subject of test [2] is Aspergillus fumigatus AF210. Description: MIC, YAG medium. The following applies: 24 h at 35° C, MIC banded into grades; for MIC: Aspergillus fumigatus, read-out: MIC grade, A. fumigatus 210. Put shortly: as §1
For test [3], the system named is Aspergillus fumigatus AF293. Description: MIC, YAG medium. Particulars: 24 h at 35° C, MIC banded into grades; for MIC: Aspergillus fumigatus, read-out: MIC grade, A. fumigatus. The procedure, abridged: as §1
The subject of test [4] is Aspergillus niger. Description: MIC, YAG medium. Particulars: 24 h at 35° C, MIC banded into grades; for MIC: Aspergillus niger, read-out: MIC grade, A. niger. The procedure, abridged:
as §1

Test [5] concerns Aspergillus terreus AT49. Briefly: MIC, YAG medium. Particulars: 24 h at 35° C, MIC banded into grades; for MIC: Aspergillus terreus, read-out: MIC grade, A. terreus 49. The procedure, abridged:
as §1

Test [6] relates to Aspergillus terreus AT4. Description: MIC, YAG medium. The following applies: 24 h at 35° C, MIC banded into grades; for MIC: Aspergillus terreus, read-out: MIC grade, A. terreus. Put shortly: as §1
In test [7] the test system is Aspergillus flavus. Description: MIC, RPMI medium. Particulars: MIC banded into grades; for MIC: Aspergillus flavus, read-out: MIC grade, A. flavus. Put shortly:
(§2)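 Fungi are tested in RPMI buffered with 0.135 M MOPS (pH 7.0) plus 2% glucose, inoculum 1−2×10^4 cfu/mL, against doubling compound dilutions spanning 50-0.05 mg/L. After 24-48 h at 35° C, the MIC is the lowest concentration suppressing growth by >80% against drug-free control.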

The test system of test [8] is Aspergillus fumigatus AF210. Description: MIC, RPMI medium. The following applies: for MIC grade, A. fumigatus 210: MIC banded into grades; for MIC: Aspergillus fumigatus, AF210, MIC banded into grades, read-out: MIC grade, A. fumigatus 210. The procedure, abridged:
as §2

For test [9], the system named is Aspergillus fumigatus AF293. Description: MIC, RPMI medium. Particulars: for MIC grade, A. fumigatus: MIC banded into grades; for MIC: Aspergillus fumigatus, AF293, MIC banded into grades, read-out: MIC grade, A. fumigatus. Put shortly: as §2
The subject of test [10] is Aspergillus niger. Briefly: MIC, RPMI medium. The following applies: MIC banded into grades; for MIC: Aspergillus niger, read-out: MIC grade, A. niger. The procedure, abridged: as §2
Test [11] concerns Aspergillus terreus AT49. Briefly: MIC, RPMI medium. The following applies: for MIC grade, A. terreus 49: MIC banded into grades; for MIC: Aspergillus terreus, AT49, MIC banded into grades, read-out: MIC grade, A. terreus 49. Put shortly:
as §2

The subject of test [12] is Aspergillus terreus AT4. Description: MIC, RPMI medium. The following applies: for MIC grade, A. terreus: MIC banded into grades; for MIC: Aspergillus terreus, AT4, MIC banded into grades, read-out: MIC grade, A. terreus. The procedure, abridged:
as §2

Values after ≈ are worked out from the molar mass of the structure shown. Bounds are passed on as bounds.

`COC(=O)n1c(C)cc(-c2ccccc2)c1C(=O)C(=O)Nc1ccc(N2CCN(c3cc(C)cc(C)n3)CC2)cc1` [Example 56, 2-{4-[4-(4,6-Dimethyl-pyridin-2-yl)-piperazin-1-yl]-phenylaminooxalyl}-5-methyl-3-phenyl-pyrrole-1-carboxylic acid methyl ester]: the “MIC grade, A. flavus” value in [1] and in test [7] was 1 (a grade of 1 represents an MIC of greater than 10 mg/L) each time. Further, the “MIC grade, A. fumigatus 210” value in test [2] is listed as 2 (A grade of 2 represents an MIC of from 1 to 10 mg/L); in test [8], 1 (a grade of 1 represents an MIC of greater than 10 mg/L). Further, the “MIC grade, A. fumigatus” value in test [3] is 2 (A grade of 2 represents an MIC of from 1 to 10 mg/L); in test [9] it was 1 (a grade of 1 represents an MIC of greater than 10 mg/L). Also, the results for the “MIC grade, A. niger” value in test [4] and in test [10] were 2 (A grade of 2 represents an MIC of from 1 to 10 mg/L) and 1 (a grade of 1 represents an MIC of greater than 10 mg/L), respectively. In addition, the “MIC grade, A. terreus 49” value is 2 (A grade of 2 represents an MIC of from 1 to 10 mg/L) in [5] and 1 (a grade of 1 represents an MIC of greater than 10 mg/L) in test [11]. Further, the “MIC grade, A. terreus” value in test [6] was 2 (A grade of 2 represents an MIC of from 1 to 10 mg/L); in test [12] it was 1 (a grade of 1 represents an MIC of greater than 10 mg/L).
Consider `COCc1cc(-c2ccccc2)c(C(=O)C(=O)Nc2ccc(N3CCN(c4cc(C)cc(C)n4)CC3)cc2)n1COC` [Example 131, 2-(1,5-Bis-methoxymethyl-3-phenyl-1H-pyrrol-2-yl)-N-{4-[4-(4,6-dimethyl-pyridin-2-yl)-piperazine-1-yl]-phenyl}-2-oxo-acetamide], for which the MIC in [1], in test [2], in [3], in test [4], in test [5] and in test [6] was 1 to 10 µg/mL (≈ 1.76 to 17.6 µM) each time. Also, the MIC in test [7] was > 10 µg/mL; in test [8], > 10 µg/mL; in test [9], > 10 µg/mL; in test [10], 1 to 10 µg/mL (≈ 1.76 to 17.6 µM); in test [11], 1 to 10 µg/mL (≈ 1.76 to 17.6 µM); in test [12] it was 1 to 10 µg/mL (≈ 1.76 to 17.6 µM).
As to `COCC(C)N1CCN(c2ccc(NC(=O)C(=O)c3c(-c4ccccc4)cc(C)n3C)cc2)CC1` (stereo not drawn) [Example 151, 2-(1,5-Dimethyl-3-phenyl-1H-pyrrol-2-yl)-N-{4-[4-(2-methoxy-1-methyl-ethyl)-piperazin-1-yl]-phenyl}-2-oxo-acetamide], the minimal inhibitory concentration (MIC) in [1], in [2], in [3], in test [4], in [5] and in test [6] was < 1 µg/mL throughout. Moreover, the MIC in [7], in [8], in test [9], in [10], in [11] and in test [12] was < 1 µg/mL throughout.
As to `Cc1cc(C)nc(N2CCN(c3ccc(NC(=O)C(=O)c4c(-c5ccccc5)cc5n4CCCCC5)cc3)CC2)c1` [41 a], the entries for the “MIC grade, A. flavus” value in test [1] and in [7] were 3 (A grade of 3 represents an MIC of less than 1 mg/L) and 1 (a grade of 1 represents an MIC of greater than 10 mg/L), respectively. Besides, the figures for the “MIC grade, A. fumigatus 210” value in [2] and in test [8] were 3 (A grade of 3 represents an MIC of less than 1 mg/L) and 1 (a grade of 1 represents an MIC of greater than 10 mg/L), respectively. Besides, the entries for the “MIC grade, A. fumigatus” value in [3] and in [9] were 3 (A grade of 3 represents an MIC of less than 1 mg/L) and 2 (A grade of 2 represents an MIC of from 1 to 10 mg/L), respectively. Also, the “MIC grade, A. niger” value in test [4] is 3 (A grade of 3 represents an MIC of less than 1 mg/L); in [10] it was 1 (a grade of 1 represents an MIC of greater than 10 mg/L). Moreover, the “MIC grade, A. terreus 49” value in test [5] and in [11] was 3 (A grade of 3 represents an MIC of less than 1 mg/L) in each case. In addition, the figures for the “MIC grade, A. terreus” value in test [6] and in test [12] were 3 (A grade of 3 represents an MIC of less than 1 mg/L) and 2 (A grade of 2 represents an MIC of from 1 to 10 mg/L), respectively.
Turning to `CCCCn1c(C)cc(-c2ccccc2)c1C(=O)C(=O)Nc1ccc(N2CCN(c3cc(C)cc(C)n3)CC2)cc1` [Example 36, 2-(1-Butyl-5-methyl-3-phenyl-1H-pyrrol-2-yl)-N-{4-[4-(4,6-dimethyl-pyridin-2-yl)-piperazin-1-yl]-phenyl}-2-oxo-acetamide], the MIC in [1], in test [2], in test [3], in test [4], in [5] and in test [6] was < 1 µg/mL each time. The MIC in [7], in test [8], in test [9], in test [10], in test [11] and in [12] was < 1 µg/mL in each case.
As to `CCCNC(=O)C(=O)c1c(-c2ccccc2)ccn1CCOC` [Example 82, 2-[1-(2-Methoxy-ethyl)-3-phenyl-1H-pyrrol-2-yl]-2-oxo-N-propyl-acetamide], the minimum inhibitory concentration (MIC) in test [1] was > 10 µg/mL; in test [2], 1 to 10 µg/mL (≈ 3.18 to 31.8 µM); in test [3], 1 to 10 µg/mL (≈ 3.18 to 31.8 µM); in [4], > 10 µg/mL; in test [5], 1 to 10 µg/mL (≈ 3.18 to 31.8 µM); in test [6], 1 to 10 µg/mL (≈ 3.18 to 31.8 µM). In addition, the MIC in [7], in test [8], in test [9], in test [10], in test [11] and in test [12] was > 10 µg/mL in each case.
As for `Cc1cc(-c2ccccc2)c(C(=O)C(=O)Nc2ccc(N3CCN(c4ccccn4)CC3)cc2F)n1C` [Example 95, 2-(1,5-Dimethyl-3-phenyl-1H-pyrrol-2-yl)-N-[2-fluoro-4-(4-pyridin-2-yl-piperazin-1-yl)-phenyl]-2-oxo-acetamide], the minimal inhibitory concentration (MIC) in test [1], in test [2], in test [3], in [4], in [5] and in test [6] was < 1 µg/mL each time. The MIC in test [7], in [8], in test [9], in test [10], in test [11] and in test [12] was < 1 µg/mL in each case.
For `C=C(C)CN1CCN(c2ccc(NC(=O)C(=O)c3c(-c4ccccc4)cc(C)n3C)c(F)c2)CC1` [Example 108, 2-(1,5-Dimethyl-3-phenyl-1H-pyrrol-2-yl)-N-{2-fluoro-4-[4-(2-methyl-allyl)-piperazin-1-yl]-phenyl}-2-oxo-acetamide], the MIC in test [1], in [2], in test [3], in test [4], in test [5] and in test [6] was < 1 µg/mL each time. Besides, the MIC in [7], in [8], in test [9], in test [10], in test [11] and in [12] was < 1 µg/mL throughout.
For `CCCn1c(C)cc(-c2ccccc2)c1C(=O)C(=O)Nc1ccc(N2CCN(c3cc(C)cc(C)n3)CC2)cc1` [Example 35, N-{4-[4-(4,6-Dimethyl-pyridin-2-yl)-piperazin-1-yl]-phenyl}-2-(5-methyl-3-phenyl-1-propyl-1H-pyrrol-2-yl)-2-oxo-acetamide], the minimal inhibitory concentration (MIC) in test [1], in [2], in [3], in [4], in [5] and in [6] was < 1 µg/mL each time. For the same compound, the MIC in [7], in test [8], in test [9], in test [10], in test [11] and in test [12] was < 1 µg/mL each time.

One may read the MIC as the smallest concentration in the dilution series that meets the test's criterion for growth inhibition.
